Source: patent US7153961B2, “Salt and crystalline form thereof of a corticotropin releasing factor receptor antagonist” (Bristol-Myers Squibb Pharma Co., priority 2003, dated 2006)

Legend:
[1] = hygroscopicity (uptake at 90% relative humidity); type: physicochemical
solubility = type: physicochemical; conditions: in e.g., polar solvents, water, glycols, and aqueous mixtures

COCCN(CCOC)c1nc(C)nc2c(-c3ccc(OC)cc3C)c(C)nn12.O=S(=O)(O)c1ccccc1 [polymorph H-1, 4-(bis(2-methoxyethyl)amino)-2,7-dimethyl-8-(2-methyl-4-methoxyphenyl)-[1,5-a]-pyrazolo-1,3,5-triazine benzenesulfonate]
hygroscopicity (uptake) [1]: less than 2%
solubility (solubility): soluble
